For 15 compounds, IC50, Papp A→B and efflux ratio results are on record in US20250019385A1, “SPIROCYCLIC ANNULATED 2-AMINO-3-CYANO THIOPHENES AND DERIVATIVES FOR THE TREATMENT OF CANCER” (Boehringer Ingelheim International GmbH, priority 2023, published 2025).

One may read the IC50 as the concentration that gives 50% inhibition. Lower therefore signals inhibition by little substance.

The target in the first series is KRAS (G12D)::CRAF protein::protein interaction (Homo sapiens (Human), UniProt P01116, G12D). The experiment in a line: KRAS TR-FRET assay (KRAS G12D::CRAF, GTP).
Chain of KRAS (G12D)::CRAF protein::protein interaction (P01116 other isoform, or with tags, fused parts or gaps G12D): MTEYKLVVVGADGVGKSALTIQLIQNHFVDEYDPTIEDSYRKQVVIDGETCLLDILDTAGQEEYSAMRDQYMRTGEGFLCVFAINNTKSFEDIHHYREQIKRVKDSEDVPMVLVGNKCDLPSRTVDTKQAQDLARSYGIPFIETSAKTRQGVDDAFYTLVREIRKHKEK
Conditions: not given
It counts as binding. Here is the method: This assay measures the inhibitory effect of compounds on KRAS::CRAF protein::protein interactions in the presence of GTP using Time-resolved fluorescence energy transfer (TR-FRET).
The following wildtype or mutant alleles of KRAS and CRAF protein have been used at the given concentrations:
KRAS (G12D) 1-169, N-terminal 6His-tag, C-terminal avi-tag (Xtal BioStructures, Inc.); final assay concentration 15 nM,
CRAF Ras binding domain, GST-tag, TEV cleavage site (Boehringer Ingelheim in house protein prep); final assay concentration 15 nM.
Test compounds dissolved in DMSO were dispensed onto assay plates (Proxiplate 384 PLUS, white, PerkinElmer; 6008289) using an Access Labcyte Workstation with the Labcyte Echo 55x. For the chosen highest assay concentration of 100 μM, 150 nl of compound solution was transferred from a 10 mM DMSO compound stock solution. A series of eleven fivefold dilutions per compound was transferred to the assay plate, compound dilutions were tested in duplicates. DMSO was added as backfill to a total volume of 150 nl.
The assay runs on a fully automated robotic system. To 150 nl of compound dilution 15 μl of a mix including the respective KRAS allele, CRAF (e.g. KRAS (G12D)::CRAF; final assay concentrations see above), GTP nucleotide (Sigma G8877; final assay concentration 10 μM), Lance Eu—W1024 labeled Streptavidin (PerkinElmer, Cat No AD0063; final assay concentration 1.5 nM) and Anti-GST surelight APC (PerkinElmer, Cat No AD0059G; final assay concentration 30 nM) in assay buffer (1×PBS, 0.1% BSA, 0.05% Tween 20) are added into columns 1-23 and 15 μL of the solution without the respective KRAS allele were added to row 24.
Plates are kept at room temperature in a darkened incubator. After 60 minutes incubation time the signal is measured in a PerkinElmer Envision HTS Multilabel Reader using the TR-FRET LANCE Ultra specs from PerkinElmer.
Each plate contains 16 wells of a negative control (diluted DMSO instead of test compound; w respective KRAS allele; column 23) and 16 wells of a positive control (diluted DMSO instead of test compound; w/o respective KRAS allele; column 24).
IC50 values were calculated and analyzed with Boehringer Ingelheim's MEGALAB 50 application using a 4 parametric logistic model.
Tables of example compounds disclosed herein contain IC50 values determined using the above assays (see Table 44).
In general terms: TR-FRET usually uses a lanthanide donor and a delayed reading to cut background.
The compound `CC(C)n1c(=O)n([C@@H]2CCOC2)c2nc(-c3onc4c3CCC[C@@]43CCCc4sc(N)c(C#N)c43)nc(O[C@@H](C)[C@@H]3CCCN3C)c21` [I-32] displayed an IC50 of 478 nM. Still for that read-out and setting: to `CO[C@H]1C[C@@H]([C@H](C)Oc2nc(-c3onc4c3CCC[C@@]43CCCc4sc(N)c(C#N)c43)nc3c2n(C)c(=O)n3[C@@H]2CCOC2)N(C)C1` [I-2] belongs 400 nM; to `Cc1nn([C@@H]2CCOC2)c2nc(-c3onc4c3CCC[C@@]43CCCc4sc(N)c(C#N)c43)nc(O[C@@H](C)[C@@H]3CCCN3C)c12` [I-42], 263 nM. The same measure, in the same setting: to `C[C@H](Oc1nc(-c2onc3c2CCC[C@@]32CCCc3sc(N)c(C#N)c32)nc2c1n(C)c(=O)n2C1COC1)[C@@H]1CCCN1C` [I-24] belongs 565 nM; to `Cc1nc2c(O[C@@H](C)[C@@H]3CCCN3C)nc(-c3onc4c3CCC[C@@]43CCCc4sc(N)c(C#N)c43)nc2n1[C@@H]1CCOC1` [I-39], 50 nM. Regarding `C[C@H](Oc1nc(-c2noc3c2CCC[C@@]32CCCc3sc(N)c(C#N)c32)nc2c1cnn2[C@@H]1CCOC1)[C@@H]1CCCN1C` [II-4], the IC50 worked out at 97 nM.

Consider `COCCn1c(=O)n(C)c2c(O[C@@H](C)[C@@H]3CCCN3C)nc(-c3onc4c3CCC[C@@]43CCCc4sc(N)c(C#N)c43)nc21` [I-7], for which the IC50 is 2260 nM. Compound `C[C@H](Oc1nc(-c2noc3c2CCC[C@@]32CCCc3sc(N)c(C#N)c32)nc2c1COC[C@@]21CCOC1)[C@@H]1CCCN1C` [II-9a] displayed an IC50 of 283 nM.

In the case of `C[C@H](Oc1nc(-c2onc3c2CCC[C@@]32CCCc3sc(N)c(C#N)c32)nc2c1n(C)c(=O)n2C12COC(C1)C2)[C@@H]1CCCN1C` [I-15], the IC50 was 298 nM. The compound `C[C@H](Oc1nc(-c2onc3c2CCC[C@@]32CCCc3sc(N)c(C#N)c32)nc2c1n(C)c(=O)n2[C@H]1CCCOC1)[C@@H]1CCCN1C` [I-11] registered an IC50 of 460 nM. On the same count and under the same terms, to `C[C@H](Oc1nc(-c2onc3c2CCC[C@@]32CCCc3sc(N)c(C#N)c32)nc2c1n(C)c(=O)n2[C@@H]1CCOC1)[C@@H]1C[C@@H](F)CN1C` [I-22] belongs 138 nM. Same read-out and setting: to `C[C@H](Oc1nc(-c2onc3c2CCC[C@@]32CCCc3sc(N)c(C#N)c32)nc2c1n(C)c(=O)n2[C@@H]1CCOC1)[C@@H]1[C@@H](F)CCN1C` [I-5] belongs 449 nM. `C[C@H](Oc1nc(-c2onc3c2CCC[C@@]32CCCc3sc(N)c(C#N)c32)nc2c1n(C)c(=O)n2[C@@H]1CCOC1)[C@@H]1C[C@H](F)CN1C` [I-27] yielded an IC50 of 410 nM. For `C[C@H](Oc1nc(-c2onc3c2CCC[C@@]32CCCc3sc(N)c(C#N)c32)nc2c1n(C)c(=O)n2C1CCOCC1)[C@@H]1CCCN1C` [I-10], the half-inhibitory concentration (IC50) was determined as 698 nM.

Tested on in the next series: not listed separately
The series can be described thus: Caco-2 assay (permeability and efflux ratio). It counts as in vitro ADME. To be noted: human, Caco-2 apical to basolateral permeability, pH 7.4, read-out: Caco PappAB. Here is the method: The assay provides information on the potential of a compound to pass the cell membrane, on the extent of oral absorption as well as on whether the compound is actively transported by uptake and/or efflux transporters. Permeability measurements across polarized, confluent Caco-2 cell monolayers grown on permeable filter supports (Corning, catalog #3391) are used. 10 μM test compound solution in assay buffer (128.13 mM NaCl, 5.36 mM KCl, 1 mM MgSO4, 1.8 mM CaCl2), 4.17 mM NaHCO3, 1.19 mM Na2HPO4, 0.41 mM NaH2PO4, 15 mM 2-[4-(2-hydroxyethyl)piperazin-1-yl]ethanesulfonic acid (HEPES), 20 mM glucose, pH 7.4) was added to the donor compartment of the cell chamber containing a monolayer of Caco-2 cells in between the donor and the receiver compartment. The receiver and donor compartments contain 0.25% bovine serum albumine (BSA) in assay buffer. Passive diffusion and/or active transport of compounds across the monolayer is measured in both apical to basolateral (a-b) and basolateral to apical (b-a) direction. a-b permeability (PappAB) represents drug absorption from the intestine into the blood and b-a permeability (PappBA) drug secretion from the blood back into the intestine via both passive permeability as well as active transport mechanisms mediated by efflux and uptake transporters that are expressed on the Caco-2 cells. After a pre-incubation of 25-30 min at 37° C., at predefined time points (0, 30, 60 and 90 min), samples were taken from the receiver and donor compartment, respectively. Concentrations of test compounds in samples were measured by HPLC/MS/MS, samples from the donor compartment were diluted 1:50 (v:v) with assay buffer, samples from receiver compartment were measured without dilution.
Apparent permeabilities in a-b (PappAB) and b-a (PappBA) directions are calculated according to the formula:
[formula] • Vrec [mL]: buffer volume in receiver compartment • Cdon [μmol/mL]: concentration of test compound in donor compartment at t=0 • ΔCrec: difference between concentrations of test compound in receiver compartment at start and end of incubation time • Δt: Incubation time • Vrec·ΔCrec/Δt [μmol/min]: Amount of compound transferred to receiver compartment per time • A [cm^2]: filter surface
Caco-2 efflux ratios (ER) are calculated as the ratio of PappBA/PappAB.
Take `C[C@H](Oc1nc(-c2noc3c2CCC[C@@]32CCCc3sc(N)c(C#N)c32)nc2c1n(C)c(=O)n2[C@H]1CO[C@@H](C)C1)[C@@H]1CCCN1C` [II-5]: the Papp A→B at 90 min, 10 μM was 8.7 ×10⁻⁶ cm/s.

The same series, now with this note: human, pH 7.4, Caco-2 efflux ratio PappBA/PappAB, read-out: Caco ER.
`C[C@H](Oc1nc(-c2noc3c2CCC[C@@]32CCCc3sc(N)c(C#N)c32)nc2c1n(C)c(=O)n2[C@H]1CO[C@@H](C)C1)[C@@H]1CCCN1C` [II-5]: the efflux ratio at 90 min, 10 μM was 5.9.
